Where two headings read alike, the source gives them in different places.
What was measured:
[1] = target: CK2 holoenzyme (CK2 α2β2) (Homo sapiens, UniProt P68400); experiment: Radiometric (P81 filter isotopic) kinase assay, CK2 holoenzyme; type: biochemical; details: read-out: Residual Activity of the Enzyme CK2 α2β2; for remaining activity at 5 µM: 5 µM compound; for remaining activity at 10 µM: 10 µM compound
[2] = test system: MDA-MB-231 cells; experiment: MTT viability assay, MDA-MB-231; type: cell-based; details: Homo sapiens, read-out: EC50 ± SD MDA-MB-231
Experimental: To test the anti-cancer effect of the TBBi derivatives, we treated the MCF-7 and MDA-MB-231 cells with the newly synthesized esters and previously reported compounds [34, 57] at the concentration range of 3.125 to 200 µM for 24 h, 48 h and 72 h. Additionally, the range of concentrations was extended by additional lower concentrations in MCF-7 for compound 4 with the minimum concentration of 0.195 µM. […] The EC50 values, describing the half maximal effective concentration of each tested compound, were calculated and are summarized in Table 2. […] We observed that the EC50 values increase in both cell lines with the elongation of fatty acids chain length in the tested compounds, thus strongly correlating with the decrease of their solubility in biological media as characterized by logS parameter (Table 2). The second reason for the decreased biological activity of the longer-chain aliphatic esters might be attributed to their greater resistance toward intracellular hydrolysis, which directly influences the slower release of the active form of the corresponding CK2 inhibitors. […] However, none of the tested compounds, except for compound 5, decreased the viability of both cell lines in a time-dependent manner (Figure 4).
MCF-7 and MDA-MB-231 were cultured in high-glucose Dulbecco’s modified Eagle medium (DMEM, Lonza, Basel, Switzerland) supplemented with 10% fetal bovine serum (FBS, EuroClone, Siziano, Italy)), 2 mM L-glutamine, and antibiotics (100 U/mL penicillin, 100 µg/mL streptomycin) (Sigma-Aldrich Chemical Company (St. Louis, MO, USA). Cells were grown in 75-cm^2 cell culture flasks (Sarstedt, Nümbrecht, Germany) in a humidified atmosphere of CO2/air (5%/95%) at 37 °C. All the experiments were performed in exponentially growing cultures. Stock solutions of the test compounds were prepared in DMSO and stored in −80 °C for a maximum of one month. For the cytotoxicity studies, stock solutions of the tested compounds were diluted 200-fold with the proper culture medium to obtain the final concentrations.
After incubation with the tested compounds, an MTT test was performed as described previously. Optical densities were measured at 570 nm using BioTek microplate reader (Winooski, VT, USA). All measurements were carried out in a minimum of three biological replicates.

[3] = test system: MCF-7 cells; experiment: Cleaved PARP1 Western blot, MCF-7; type: cell-based, human; details: MCF-7, 72 h treatment, compound at its EC50
Experimental: In order to evaluate the proapoptotic properties of the newly synthesized derivatives, we analyzed the level of cleaved PARP1 [c-PARP1, nuclear poly (ADP-ribose) polymerase 1], the hallmark of apoptotic cells.
Considering the lack of significant effect of the tested compounds in MCF-7 cells after 24-h treatment, we additionally evaluated c-PARP1 level in this cell line after 72 h of treatment. […] It should be noted that the highest level of c-PARP up to almost 20-fold higher than in the control was detected in the cell culture treated with a derivative 6b.
The MCF-7 cells growing exponentially were seeded at 4.8 × 10^5 cells in 6-cm-diameter plates. Subsequently, compounds were added in a final concentration of 0.5% DMSO. […] The protein concentration was determined using Bradford assay. […] Equal amounts of total protein (10 to 20 μg) were analyzed by SDS-PAGE, and subsequently, Western blotting was performed using primary antibodies in blocking buffer containing either 3% BSA (bovine serum albumin) or 3% milk in TBS-T (Tris-buffered saline (10 mM Tris-HCl (pH 8), 150 mM NaCl) containing 0.1% Tween 20 or 0.2% Triton X-100) for 1 h. […]
For densitometry, immunoblots were quantified using the Fiji distribution of the ImageJ 1.52a software (National Institutes of Health, Bethesda, MD, USA, and the University of Wisconsin, Madison, WI, USA). […]

[4] = test system: MDA-MB-231 cells; experiment: Annexin V-FITC/PI flow cytometry, MDA-MB-231; type: cell-based, human; details: compound at its EC50
Experimental: Similar to the results obtained for MCF-7 cells, compound 6b acted in MDA-MB-231 cells as an effective inducer of apoptosis with the amount of apoptotic cells equal to 31.5% and 49% after 24 h and 72 h of treatment, respectively.
MCF-7 cells were seeded in six-well plates at 1.5 × 10^5 cells/well. […] Then, the plates were incubated for 24 h or 72 h. After exposure to the examined compounds, the floating cells were collected, and monolayer cell culture was trypsinized. The cells were centrifugated at 200× g at 4 °C for 5 min, washed twice in cold phosphate-buffered saline (PBS), and subsequently suspended in binding buffer at 1 × 10^6 cells/mL. Subsequently, 100-μL aliquots of the cell suspension were labeled according to the kit manufacturer’s instructions. Briefly, annexin V-fluorescein isothiocyanate and propidium iodide (BD Biosciences, Pharmingen, San Diego, CA, USA) were added to the cell suspension, and the mixture was vortexed and then incubated for 15 min at RT in the dark. A cold binding buffer (900 μL) was then added and the cells were vortexed again and kept on ice. Flow cytometric measurements were performed within 1 h after labeling. Viable, necrotic, early, and late apoptotic cells were detected by flow cytometry using CyFlow Cube 8 (Sysmex, Norderstedt, Germany) flow cytometer.

[5] = target: PIM1 (Homo sapiens, UniProt P11309); experiment: Radiometric (P81 filter isotopic) kinase assay, PIM1; type: biochemical; details: read-out: Residual Activity of the Enzyme PIM1; for remaining activity at 5 µM: 5 µM compound; for remaining activity at 10 µM: 10 µM compound
[6] = test system: MCF-7 cells; experiment: Cell cycle progression by flow cytometry, MCF-7; type: cell-based, human; details: MCF-7, 72 h, compound at its EC50

Sequence of PIM1 (P11309 whole entry, species assumed): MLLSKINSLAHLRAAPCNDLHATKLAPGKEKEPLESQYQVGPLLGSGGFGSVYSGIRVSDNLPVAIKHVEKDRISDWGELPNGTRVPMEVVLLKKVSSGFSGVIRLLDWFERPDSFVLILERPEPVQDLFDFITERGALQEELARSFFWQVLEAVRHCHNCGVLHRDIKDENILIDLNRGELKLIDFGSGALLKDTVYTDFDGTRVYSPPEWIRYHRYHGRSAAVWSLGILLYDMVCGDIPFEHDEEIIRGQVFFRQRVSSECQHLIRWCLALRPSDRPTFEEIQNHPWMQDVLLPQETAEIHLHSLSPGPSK
Sequence of CK2 holoenzyme (CK2 α2β2) (P68400 whole entry): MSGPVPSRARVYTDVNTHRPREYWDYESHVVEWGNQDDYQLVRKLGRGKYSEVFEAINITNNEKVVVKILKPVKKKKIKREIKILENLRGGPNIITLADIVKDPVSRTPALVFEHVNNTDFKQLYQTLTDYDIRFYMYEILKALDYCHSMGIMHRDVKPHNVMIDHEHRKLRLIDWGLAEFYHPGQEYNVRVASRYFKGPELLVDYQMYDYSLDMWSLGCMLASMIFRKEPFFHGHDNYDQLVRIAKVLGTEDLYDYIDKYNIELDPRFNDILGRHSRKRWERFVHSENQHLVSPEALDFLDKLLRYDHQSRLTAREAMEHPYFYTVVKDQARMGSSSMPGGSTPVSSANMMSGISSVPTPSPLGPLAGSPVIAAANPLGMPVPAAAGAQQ
Sequence of CK2 holoenzyme (CK2 α2β2) (P67870 whole entry partner): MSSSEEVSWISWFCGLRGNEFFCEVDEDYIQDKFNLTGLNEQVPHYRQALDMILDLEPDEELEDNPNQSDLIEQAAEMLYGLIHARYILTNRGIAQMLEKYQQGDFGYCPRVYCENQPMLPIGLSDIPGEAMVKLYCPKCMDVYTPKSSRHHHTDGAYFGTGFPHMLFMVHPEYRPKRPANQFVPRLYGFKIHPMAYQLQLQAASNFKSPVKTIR

SMILES | remaining activity at 5 µM [1] | remaining activity at 10 µM [1] | EC50 ([2]; 24 h) | EC50 ([2]; 48 h) | EC50 ([2]; 72 h) | level of c-PARP1 relative to control [3] | apoptotic cells ([4]; MDA-MB-231, 24 h treatment) | apoptotic cells ([4]; MDA-MB-231, 72 h treatment) | remaining activity at 5 µM [5] | remaining activity at 10 µM [5] | cells in G1 [6] | cells in G2M [6] | cells in S [6]
CCCCCCCC(=O)OCCCn1cnc2c(Br)c(Br)c(Br)c(Br)c21 [Compound 3c, 3-(4,5,6,7-Tetrabromo-1H-benzimidazol-1-yl)propyl octanoate] | 95.3 ± 2.9% | 92.7 ± 3.5% | 45.1 ± 5.43 µM | 23.7 ± 3.97 µM | 32.8 ± 3.25 µM | significant increase | 32.5% | 50.5% | 99.1 ± 15.7% | 95.4 ± 4% | 59.4% | 11.0% | 29.6%
CCCCCC(=O)OCCCn1c(C)nc2c(Br)c(Br)c(Br)c(Br)c21 [Compound 6b, (4,5,6,7-Tetrabromo-2-methyl-1H-benzimidazol-1-yl)propyl hexanoate] | 85.4 ± 0.6% | 71.4 ± 0.2% | 51.4 ± 8.22 µM | 21.2 ± 2.4 µM | 22.1 ± 3.18 µM | ~20 fold | 31.5% | 49% | 62.4 ± 8.3% | 46.4 ± 2.7% | 50.1% | 19.9% | 30.0%

From paper PMC8230474, “Synthesis of Novel Acyl Derivatives of 3-(4,5,6,7-Tetrabromo-1H-benzimidazol-1-yl)propan-1-ols—Intracellular TBBi-Based CK2 Inhibitors with Proapoptotic Properties” (International Journal of Molecular Sciences, 2021)
